# ChEMBL document CHEMBL1201862, “PubChem BioAssay data set” (2004)
#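 The compound was tested at five concentrations on cells cultured in 96-well plates, with a 48-hour exposure period. Here, GI50 denotes the concentration required for 50% inhibition of growth.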 The source made the active and inactive calls. Cut-off read from the data, not from the text of the source: active = GI50 up to about 1.1 µM and inactive = higher.
# Experiments:
# Test in all cases: growth of human tumour cells (NCI), 48 h
# MDA-MB-435 = tested on: MDA-MB-435
# K562 = tested on: K562
# MDA-N = tested on: MDA-N
# A498 = tested on: A498
# MCF7 = tested on: MCF7
# SK-OV-3 = tested on: SK-OV-3
# KM12 = tested on: KM12
# NCI-H460 = tested on: NCI-H460
# A549 = tested on: A549
# SNB-19 = tested on: SNB-19
# SF-268 = tested on: SF-268
# ACHN = tested on: ACHN
# OVCAR-3 = tested on: OVCAR-3
# SF-295 = tested on: SF-295
# NCI/ADR-RES = tested on: NCI/ADR-RES
# HOP-92 = tested on: HOP-92
# SF-539 = tested on: SF-539
# NCI-H522 = tested on: NCI-H522
# NCI-H226 = tested on: NCI-H226
# CCRF-CEM = tested on: CCRF-CEM
# M14 = tested on: M14
# SK-MEL-28 = tested on: SK-MEL-28
# SK-MEL-5 = tested on: SK-MEL-5
# PC-3 = tested on: PC-3
# SNB-75 = tested on: SNB-75
# TK-10 = tested on: TK-10
# OVCAR-8 = tested on: OVCAR-8
# Hs-578T = tested on: Hs-578T
# HCT-116 = tested on: HCT-116
# EKVX = tested on: EKVX
# UACC-257 = tested on: UACC-257
# COLO 205 = tested on: COLO 205
# SN12C = tested on: SN12C
# U-251 = tested on: U-251
# RXF 393 = tested on: RXF 393
# MOLT-4 = tested on: MOLT-4
# 786-0 = tested on: 786-0
# BT-549 = tested on: BT-549
# UO-31 = tested on: UO-31
# HOP-62 = tested on: HOP-62
# HCT-15 = tested on: HCT-15
# SR = tested on: SR
# UACC-62 = tested on: UACC-62
# IGROV-1 = tested on: IGROV-1
# HCC 2998 = tested on: HCC 2998
# SK-MEL-2 = tested on: SK-MEL-2
# DU-145 = tested on: DU-145
# HT-29 = tested on: HT-29
# Malme-3M = tested on: Malme-3M
# SW-620 = tested on: SW-620
# T47D = tested on: T47D
# HL-60 = tested on: HL-60
# MDA-MB-231 = tested on: MDA-MB-231
# RPMI-8226 = tested on: RPMI-8226
# LOX IMVI = tested on: LOX IMVI
# NCI-H23 = tested on: NCI-H23
# CAKI-1 = tested on: CAKI-1
# OVCAR-4 = tested on: OVCAR-4
# OVCAR-5 = tested on: OVCAR-5
structure (smiles),measurement,setting,value
Nc1c(Cl)cc(-c2nc3ccccc3s2)cc1Cl,GI50,MDA-MB-435,> 100 µM (inactive)
same,GI50,K562,> 100 µM (inactive)
same,GI50,MDA-N,> 100 µM (inactive)
same,GI50,A498,0.288 µM (active)
same,GI50,MCF7,0.522 µM (active)
same,GI50,SK-OV-3,> 100 µM (inactive)
same,GI50,KM12,> 100 µM (inactive)
same,GI50,NCI-H460,0.556 µM (active)
same,GI50,A549,> 100 µM (inactive)
same,GI50,SNB-19,> 100 µM (inactive)
same,GI50,SF-268,> 100 µM (inactive)
same,GI50,ACHN,> 100 µM (inactive)
same,GI50,OVCAR-3,> 100 µM (inactive)
same,GI50,SF-295,> 100 µM (inactive)
same,GI50,NCI/ADR-RES,> 100 µM (inactive)
same,GI50,HOP-92,> 100 µM (inactive)
same,GI50,SF-539,> 100 µM (inactive)
same,GI50,NCI-H522,> 100 µM (inactive)
same,GI50,NCI-H226,> 100 µM (inactive)
same,GI50,CCRF-CEM,> 100 µM (inactive)
same,GI50,M14,> 100 µM (inactive)
same,GI50,SK-MEL-28,> 100 µM (inactive)
same,GI50,SK-MEL-5,> 100 µM (inactive)
same,GI50,PC-3,> 100 µM (inactive)
same,GI50,SNB-75,> 100 µM (inactive)
same,GI50,TK-10,0.501 µM (active)
same,GI50,OVCAR-8,> 100 µM (inactive)
same,GI50,Hs-578T,> 100 µM (inactive)
same,GI50,HCT-116,> 100 µM (inactive)
same,GI50,EKVX,> 100 µM (inactive)
same,GI50,UACC-257,> 100 µM (inactive)
same,GI50,COLO 205,> 100 µM (inactive)
same,GI50,SN12C,> 100 µM (inactive)
same,GI50,U-251,> 100 µM (inactive)
same,GI50,RXF 393,> 100 µM (inactive)
same,GI50,MOLT-4,> 100 µM (inactive)
same,GI50,786-0,22.6 µM (inactive)
same,GI50,BT-549,> 100 µM (inactive)
same,GI50,UO-31,> 100 µM (inactive)
same,GI50,HOP-62,> 100 µM (inactive)
same,GI50,HCT-15,> 100 µM
same,GI50,SR,> 100 µM (inactive)
same,GI50,UACC-62,> 100 µM (inactive)
same,GI50,IGROV-1,0.328 µM (active)
same,GI50,HCC 2998,> 100 µM (inactive)
same,GI50,SK-MEL-2,> 100 µM (inactive)
same,GI50,DU-145,> 100 µM (inactive)
same,GI50,HT-29,> 100 µM (inactive)
same,GI50,Malme-3M,> 100 µM (inactive)
same,GI50,SW-620,> 100 µM (inactive)
same,GI50,T47D,4.16 µM (inactive)
same,GI50,HL-60,> 100 µM (inactive)
same,GI50,MDA-MB-231,69 µM (inactive)
Cc1nc(C)c(N2CCN(CN)CC2)c(O)n1,GI50,MDA-MB-435,> 100 µM (inactive)
same,GI50,K562,> 100 µM (inactive)
same,GI50,MDA-N,> 100 µM (inactive)
same,GI50,A498,> 100 µM (inactive)
same,GI50,MCF7,> 100 µM (inactive)
same,GI50,SK-OV-3,> 100 µM (inactive)
same,GI50,KM12,> 100 µM (inactive)
same,GI50,NCI-H460,> 100 µM (inactive)
same,GI50,A549,> 100 µM (inactive)
same,GI50,SNB-19,> 100 µM (inactive)
same,GI50,SF-268,> 100 µM (inactive)
same,GI50,ACHN,> 100 µM (inactive)
same,GI50,OVCAR-3,> 100 µM (inactive)
same,GI50,SF-295,> 100 µM (inactive)
same,GI50,NCI/ADR-RES,> 100 µM (inactive)
same,GI50,RPMI-8226,> 100 µM (inactive)
same,GI50,HOP-92,> 100 µM (inactive)
same,GI50,SF-539,> 100 µM (inactive)
same,GI50,NCI-H522,> 100 µM (inactive)
same,GI50,NCI-H226,> 100 µM (inactive)
same,GI50,CCRF-CEM,> 100 µM (inactive)
same,GI50,M14,> 100 µM (inactive)
same,GI50,SK-MEL-28,> 100 µM (inactive)
same,GI50,SK-MEL-5,> 100 µM (inactive)
same,GI50,PC-3,> 100 µM (inactive)
same,GI50,TK-10,> 100 µM (inactive)
same,GI50,OVCAR-8,> 100 µM (inactive)
same,GI50,Hs-578T,> 100 µM (inactive)
same,GI50,HCT-116,> 100 µM (inactive)
same,GI50,EKVX,> 100 µM (inactive)
same,GI50,UACC-257,> 100 µM (inactive)
same,GI50,COLO 205,> 100 µM (inactive)
same,GI50,SN12C,> 100 µM (inactive)
same,GI50,U-251,56.8 µM (inactive)
same,GI50,RXF 393,> 100 µM (inactive)
same,GI50,MOLT-4,> 100 µM (inactive)
same,GI50,786-0,88.7 µM (inactive)
same,GI50,BT-549,> 100 µM (inactive)
same,GI50,LOX IMVI,> 100 µM (inactive)
same,GI50,UO-31,> 100 µM (inactive)
same,GI50,HOP-62,> 100 µM (inactive)
same,GI50,HCT-15,> 100 µM
same,GI50,SR,> 100 µM (inactive)
same,GI50,NCI-H23,> 100 µM (inactive)
same,GI50,CAKI-1,8.15 µM (inactive)
same,GI50,OVCAR-4,> 100 µM (inactive)
same,GI50,UACC-62,> 100 µM (inactive)
same,GI50,IGROV-1,> 100 µM (inactive)
same,GI50,HCC 2998,> 100 µM (inactive)
same,GI50,DU-145,> 100 µM (inactive)
same,GI50,HT-29,> 100 µM (inactive)
same,GI50,Malme-3M,> 100 µM (inactive)
same,GI50,SW-620,> 100 µM (inactive)
same,GI50,T47D,> 100 µM (inactive)
same,GI50,HL-60,> 100 µM (inactive)
same,GI50,MDA-MB-231,> 100 µM (inactive)
Nc1ccn(C2OC(C(OC3OC(CO)C(O)C(N)C3O)C(O)C(O)C(O)C(O)CO)C(N)C(O)C2O)c(=O)n1 (configuration not stated),GI50,MDA-MB-435,> 100 µM (inactive)
same,GI50,MDA-N,> 100 µM (inactive)
same,GI50,A498,> 100 µM (inactive)
same,GI50,MCF7,> 100 µM (inactive)
same,GI50,KM12,70 µM (inactive)
same,GI50,NCI-H460,22 µM (inactive)
same,GI50,A549,> 100 µM (inactive)
same,GI50,SNB-19,47.3 µM (inactive)
same,GI50,SF-268,11 µM (inactive)
same,GI50,ACHN,21.7 µM (inactive)
same,GI50,OVCAR-3,22.4 µM (inactive)
same,GI50,SF-295,13.1 µM (inactive)
same,GI50,NCI/ADR-RES,49.1 µM (inactive)
same,GI50,RPMI-8226,> 100 µM (inactive)
same,GI50,HOP-92,3.78 µM (inactive)
same,GI50,SF-539,11.3 µM (inactive)
same,GI50,NCI-H522,22.5 µM (inactive)
same,GI50,CCRF-CEM,> 100 µM (inactive)
same,GI50,M14,44 µM (inactive)
same,GI50,SK-MEL-28,> 100 µM (inactive)
same,GI50,SK-MEL-5,> 100 µM (inactive)
same,GI50,PC-3,50.7 µM (inactive)
same,GI50,TK-10,85.9 µM (inactive)
same,GI50,OVCAR-8,81.5 µM (inactive)
same,GI50,Hs-578T,1.98 µM (inactive)
same,GI50,HCT-116,46.3 µM (inactive)
same,GI50,EKVX,> 100 µM (inactive)
same,GI50,UACC-257,> 100 µM (inactive)
same,GI50,COLO 205,> 100 µM (inactive)
same,GI50,SN12C,> 100 µM (inactive)
same,GI50,U-251,> 100 µM (inactive)
same,GI50,MOLT-4,> 100 µM (inactive)
same,GI50,786-0,35.5 µM (inactive)
same,GI50,BT-549,31.3 µM (inactive)
same,GI50,LOX IMVI,21.7 µM (inactive)
same,GI50,UO-31,52 µM (inactive)
same,GI50,HOP-62,20.7 µM (inactive)
same,GI50,HCT-15,36.3 µM
same,GI50,SR,19.9 µM (inactive)
same,GI50,NCI-H23,> 100 µM (inactive)
same,GI50,CAKI-1,61 µM (inactive)
same,GI50,OVCAR-4,3.54 µM (inactive)
same,GI50,UACC-62,71 µM (inactive)
same,GI50,OVCAR-5,15 µM (inactive)
same,GI50,IGROV-1,30.7 µM (inactive)
same,GI50,HCC 2998,5.26 µM (inactive)
same,GI50,SK-MEL-2,> 100 µM (inactive)
same,GI50,DU-145,> 100 µM (inactive)
same,GI50,HT-29,> 100 µM (inactive)
same,GI50,SW-620,> 100 µM (inactive)
same,GI50,T47D,> 100 µM (inactive)
same,GI50,HL-60,> 100 µM (inactive)
same,GI50,MDA-MB-231,6.44 µM (inactive)
